Here are results for one compound from EP3255433A1, “METHODS USING BLM AS A MARKER OF MULTIPLE MYELOMA” (priority 2016, dated 2017).

As a reminder, the IC50 is the point on the concentration scale where inhibition reaches its midpoint.

Read-outs that look alike come from different tables or passages of the source.

Test [1] concerns human myeloma cell lines (HMCL). Briefly: Cell growth inhibition of human myeloma cell lines (CellTiter-Glo Luminescent Cell Viability Assay). The test is classed as cell-based. Particulars: 96 h, 4 days culture, 2 ng/ml interleukin six. From the text:
• Figure 1: BLM expression in normal and malignant plasma cells. BLM expression in normal BMPCs (N = 5), in MM cells of patients with intramedullary MM (N = 206) and in HMCLs (N = 26). Ordinate : BLM expression, as expressed in Affimetrix signal arbitrary units. Abscissa : from left to right : BMPCs (n=5); MMCs (n=206) and HMCLs (n=26). • Figure 2: BLM gene expression in the 7 MM molecular subgroups of the TT2-cohort. PR = proliferation, LB = low bone disease, MS = MMSET, HY = hyperdiploid, CD1 = cyclin D1/D3, CD2 = cyclin D1/D3, MF = MAF. * indicates higher score value compared to all other groups with P<0.05. Ordinate : BLM expression, as expressed in Affimetrix signal arbitrary units. […] At day 4 of culture, the viability was assessed by CellTiter-Glo® Luminescent Cell Viability Assay. […] Data are mean values ± standard deviation (SD) of five experiments determined on sextuplet culture wells. • Figure 4A : Growth inhibition of a plurality of MM cell lines in the presence of the ML216 BLM inhibitor. Ordinate : cell growth inhibition, as expressed as percent of control cells without ML216 :Cell lines tested : □ XG1 cells; ◊ XG7 cells; ○ XG12 cells; ◆XG25 cells; ● XG19 cells; + LP1 cells. […] At day 4 of culture, the viability and total cell counts were assessed and the percentage of CD138 viable plasma and non-myeloma cells was determined by flow cytometry. […]

In test [2] the test system is primary myeloma cells of patients. Description: Cytotoxicity on primary myeloma cells of patients (CD138 flow cytometry). The test is classed as cell-based, human. The settings on record: 4 days, IL-6 (1 ng/mL), co-cultured with bone marrow environment, n=7. From the text: • Figure 1: BLM expression in normal and malignant plasma cells. BLM expression in normal BMPCs (N = 5), in MM cells of patients with intramedullary MM (N = 206) and in HMCLs (N = 26). Ordinate : BLM expression, as expressed in Affimetrix signal arbitrary units. Abscissa : from left to right : BMPCs (n=5); MMCs (n=206) and HMCLs (n=26). • Figure 2: BLM gene expression in the 7 MM molecular subgroups of the TT2-cohort. PR = proliferation, LB = low bone disease, MS = MMSET, HY = hyperdiploid, CD1 = cyclin D1/D3, CD2 = cyclin D1/D3, MF = MAF. * indicates higher score value compared to all other groups with P<0.05. Ordinate : BLM expression, as expressed in Affimetrix signal arbitrary units. Abscissa : from left to right: PR, LB, MS, HY, CD1, CD2 and MF . • Figure 3: BLM expression in MMCs could predict for shorter overall and event free survival in independent cohorts of patients. • Figure 3A : Patients of the HM cohort (n = 206) were ranked according to increasing BLM expression and a maximum difference in overall survival (OS) was obtained using the Maxstat R function. Upper curve : BLM^Low; Lower curve : BLM^High. Ordinate : Overall Survival (OS). Abscissa : Days from diagnosis. • Figure 3B : BLM expression is also associated with a shorter event free survival (EFS) in the HM cohort (n = 206). Upper curve : BLM^Low; Lower curve : BLM^High. Ordinate : […]). […] At day 4 of culture, the viability was assessed by CellTiter-Glo® Luminescent Cell Viability Assay. […] Data are mean values ± standard deviation (SD) of five experiments determined on sextuplet culture wells. • Figure 4A : Growth inhibition of a plurality of MM cell lines in the presence of the ML216 BLM inhibitor. Ordinate : cell growth inhibition, as expressed as percent of control cells without ML216 :Cell lines tested : □ XG1 cells; ◊ XG7 cells; ○ XG12 cells; ◆XG25 cells; ● XG19 cells; + LP1 cells. […] At day 4 of culture, the viability and total cell counts were assessed and the percentage of CD138 viable plasma and non-myeloma cells was determined by flow cytometry. […]

Consider `O=C(Nc1ccc(F)c(C(F)(F)F)c1)Nc1nnc(-c2ccncc2)s1` [ML216], for which the IC50 in test [1] (median over 6 HMCL (XG-1, XG-7, XG-12, XG-25, XG-19, LP1), read-out: median IC50) was 4.1 µM; in test [1] (range over 6 HMCL, read-out: IC50 (range)) it was 1.2 to 30 µM. The “reduction of the median number of viable myeloma cells” value in test [2] (3 µM, P = 0.001) is given as 54%; in test [2] (6 µM, P < 0.001) it was 60%; in test [2] (10 µM, P <0.001) it was 74%.
